Reference: US5698523A, “Acylated enol derivatives as prodrugs of elastase inhibitors” (Merrell Pharmaceuticals Inc., priority 1996, dated 1997)

Molecular target: T1, Human neutrophil elastase (Homo sapiens, UniProt P08246)
T1 construct: Enzyme was isolated from human sputum; from tissue; host or cells: human sputum
T1 sequence (P08246 30-267): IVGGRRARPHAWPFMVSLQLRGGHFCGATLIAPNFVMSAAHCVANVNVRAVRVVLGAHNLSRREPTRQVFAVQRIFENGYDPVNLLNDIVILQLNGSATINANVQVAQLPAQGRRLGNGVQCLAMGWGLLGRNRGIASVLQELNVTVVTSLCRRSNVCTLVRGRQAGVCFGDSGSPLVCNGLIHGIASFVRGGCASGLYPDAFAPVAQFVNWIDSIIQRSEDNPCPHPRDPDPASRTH
Test: In vitro assay of human neutrophil elastase in the presence of prodrug and porcine liver esterase
Type: biochemical
Conditions: for time course / onset of inhibition of elastase compared with MDL 103,279: 66 nM compound + porcine liver esterase, FIG. 2
Protocol: Human neutrophil elastase was assayed in vitro using N-MeOSuc-Ala-Ala-Pro-Val-p-nitroanilide, available commercially, as substrate. The assay techniques are similar to those described by Mehdi, et al., Biochemical and Biophysical Research Communications, 166, 595 (1990). The assay mixture consisted of partially purified elastase and substrate (0.2 mM) in 0.1M HEPES (pH 7.5), 0.5M NaCl, 10% DMSO and 0.1% Brij 35. The reaction (3.0 mL, in a plastic cuvette) was maintained at 37° C. and the hydrolysis of the substrate was followed in the presence of 66 nM of MDL 103,279 and 12.5 units of porcine liver esterase (Sigma Chemical Co., cat. no. E-3128). Enzyme was isolated from human sputum, although recently it has become commercially available. The time course of the reaction was followed for 60 min. […] From the final rate, a Ki of 25 nM was calculated for the final inhibitory species, presumed to be MDL 101,146 (as disclosed in European Pat. Appl. OPI No. 0529568, published Mar. 3, 1993). This is consistent with the Ki obtained independently for MDL 101,146. The Ki for MDL 103,279, the prodrug, was estimated from the initial rate to be greater than 2 μM. To rule out interference of the esterase with the elastase assay, or a significant spontaneous (i.e. non-enzymatic) hydrolysis rate of MDL 103,279, the following control experiments, as portrayed in FIG. 1, were performed: (A) elastase+elastase substrate; (B) elastase+elastase substrate+porcine liver esterase; (C) elastase+elastase substrate+MDL 103,279; as well as (D) elastase+elastase substrate+esterase+MDL 103,279.

SMILES | time course / onset of inhibition of elastase compared with MDL 103,279 | half-time of the progressive increase in extent of inhibition of elastase (66 nM compound, 12.5 units porcine liver esterase, 37° C., followed for 60 min) | Ki (66 nM compound, 12.5 units porcine liver esterase, pH 7.5, 37° C., read-out: Ki of the prodrug estimated from the initial rate) [µM]
CC(C)C(=O)OC(=C(NC(=O)[C@@H]1CCCN1C(=O)[C@@H](NC(=O)c1ccc(C(=O)N2CCOCC2)cc1)C(C)C)C(C)C)C(F)(F)C(F)(F)F [MDL 105,658, (E)-N-[4-(4-Morpholinylcarbonyl)benzoyl]-L-valyl-N-[3,3,4,4,4-pentafluoro-1-(1-methylethyl)-2-(2-methyl-1-oxopropoxy)-1-butenyl]-L-prolinamide] | same time course | – | –
CCC(=O)OC(=C(NC(=O)[C@@H]1CCCN1C(=O)[C@@H](NC(=O)c1ccc(C(=O)N2CCOCC2)cc1)C(C)C)C(C)C)C(F)(F)C(F)(F)F [MDL 104,226, (E)-N-[4-(4-Morpholinylcarbonyl)benzoyl]-L-valyl-N-[3,3,4,4,4-pentafluoro-1-(1-methylethyl)-2-(1-oxopropoxy)-1-butenyl]-L-prolinamide] | same time course | – | –
CC(=O)OC(=C(NC(=O)[C@@H]1CCCN1C(=O)[C@@H](NC(=O)c1ccc(C(=O)N2CCOCC2)cc1)C(C)C)C(C)C)C(F)(F)C(F)(F)F [MDL 105,457, (Z)-N-[4-(4-Morpholinylcarbonyl)benzoyl]-L-valyl-N-[2-(acetyloxy)-3,3,4,4,4-pentafluoro-1-(1-methylethyl)-1-butenyl]-L-prolinamide] | significantly slower | – | –
CC(=O)OC(=C(NC(=O)[C@@H]1CCCN1C(=O)[C@@H](NC(=O)c1ccc(C(=O)N2CCOCC2)cc1)C(C)C)C(C)C)C(F)(F)C(F)(F)F [MDL 103,279, (E)-N-[4-(4-Morpholinylcarbonyl)benzoyl]-L-valyl-N-[2-(acetyloxy)-3,3,4,4,4-pentafluoro-1-(1-methylethyl)-1-butenyl]-L-prolinamide] | – | approximately 10 min | > 2
